Assay results published in patent US8993603B2, “Pharmaceutical composition and method using antifungal agent in combination” (Toyama Chemical Co., Ltd., priority 2005, dated 2015).

How the values were obtained:
[1] = system: Aspergillus fumigatus TIMM0063; experiment: Mouse systemic infection model using Aspergillus fumigatus; format: in vivo; conditions: ICR mice, 15 days after infection, test compound 0.1 mg/kg s.c., once a day, 7 times
Method: In vivo activity was evaluated employing a mouse systemic infection model using Aspergillus fumigatus.
As for the inoculum, mice (four-week old (at infection) male ICR mice, 10 mice per group) were intraperitoneally administered with cyclophosphamide 4 days prior to infection (200 mg/kg) and the day after infection (100 mg/kg). A conidium suspension of Aspergillus fumigatus TIMM0063 was diluted with sterile physiological saline solution containing 0.05% Tween 80 (manufactured by Difco Laboratories) to prepare an inoculum. The mice were intravenously inoculated in their tails with 0.2 mL of the inoculum to induce infection (approximately 4×10^4 CFU/mouse).
(§1) The test compound was dissolved in a small amount of 0.1 mol/L hydrochloric acid, and the resultant solution was diluted with sterile physiological saline solution.
Voriconazole was dissolved in 50 mg/mL aqueous sulfobutyl ether β-cyclodextrin sodium (SIDIX) solution.
Flucytosine was suspended in 0.5% methyl cellulose solution.
The test compound (0.1 mg/kg) and voriconazole (5 mg/kg) were subcutaneously administered and flucytosine (50 mg/kg) was orally administered 2 hours after infection and then once a day for 6 days for a total of 7 times. The test was carried out for the case where each of the agents was administered singly and in combination by administering each of the agents immediately after the test compound had been administered. Efficacy in the susceptibility test was evaluated by the survival rate 15 days after infection.

[2] = system: Cryptococcus neoformans ATCC90112; experiment: Mouse systemic infection model using Cryptococcus neoformans; format: in vivo; conditions: ICR mice, 22 days after infection, test compound 0.125 mg/kg s.c., once a day, 7 times
Method: In vivo activity was evaluated employing a mouse systemic infection model using Cryptococcus neoformans.
Mice (four-week old (at infection) male ICR mice, 10 mice per group) were intraperitoneally administered with cyclophosphamide 4 days prior to infection (200 mg/kg) and the day after infection (100 mg/kg). An inoculum was prepared by suspending in sterile physiological saline solution Cryptococcus neoformans ATCC90112 on a SDA flat plate that had been cultured for one night at 35° C., counting the number of cells using a biological microscope, and then diluting with sterile physiological saline solution. The mice were intravenously inoculated in their tails with 0.2 mL of the inoculum to induce infection (approximately 8×10^4 CFU/mouse).
as §1
Fluconazole was prepared using sterile physiological saline solution.
Amphotericin B was dissolved in a 5% aqueous glucose solution.
The test compound (0.125 mg/kg), fluconazole (5 mg/kg) and amphotericin B (0.25 mg/kg) were subcutaneously administered 2 hours after infection and then once a day for 6 days a total of 7 times. The test was carried out for the case where the each of the agents was administered singly and in combination by administering each of the agents immediately after the test compound had been administered. Efficacy in the susceptibility test was evaluated by the survival rate 22 days after infection.

[3] = Table 5, flucytosine 50 mg/kg orally
[4] = Table 7, amphotericin B 0.25 mg/kg s.c.
[5] = Table 6, fluconazole 5 mg/kg s.c.
[6] = Table 4, voriconazole 5 mg/kg s.c.

| Compound | Survival rate (%) [1, 3] | Survival rate (%) [2, 4] | Survival rate (%) [2, 5] | Survival rate (%) [1, 6] |
| --- | --- | --- | --- | --- |
| Nc1[nH]c(=O)ncc1F [5-FC, flucytosine] | 10% | – | – | – |
| C[C@@H]1[C@H](O)[C@@H](C)/C=C/C=C/C=C/C=C/C=C/C=C/C=C/[C@H](O[C@@H]2O[C@H](C)[C@@H](O)[C@H](N)[C@@H]2O)C[C@@H]2O[C@](O)(C[C@@H](O)C[C@@H](O)[C@H](O)CC[C@@H](O)C[C@@H](O)CC(=O)O[C@H]1C)C[C@H](O)[C@H]2C(=O)O [AMPH-B, amphotericin B] | – | 20% | – | – |
| OC(Cn1cncn1)(Cn1cncn1)c1ccc(F)cc1F [FLCZ, fluconazole] | – | – | 10% | – |
| N=C(N)c1ccc(OCCCC2CCN(CCCOc3ccc(C(=N)N)cc3)CC2)cc1 [Test Compound] | 10% | 0% | 20% | 10% |
| C[C@@H](c1ncncc1F)[C@](O)(Cn1cncn1)c1ccc(F)cc1F [VLCZ, voriconazole] | – | – | – | 10% |
